From PubChem BioAssay AID179 (DTP/NCI, 2004)
Where “and” joins values, the source holds several entries; their conditions need not be identical. Equal values may be shown once. Calls of active or inactive are those of the source.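 The calls were made as follows: active = compounds giving half or more protection of infected cells from virus-caused growth loss, again on retest; inactive = the rest.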 Where a SMILES comes first, the peptide text is derived from it. [ ]: non-standard residue; d: D form. The star is where a group is joined. X10 = CC(C)CN(C[C@@H](O)[C@H](Cc1ccc(OCC(=O)*)cc1)NC(=O)O[C@H]1CCOC1)S(=O)(=O)c1ccc(N)cc1; NMeLeu(3R-OH) = CN[C@H](C(=O)O)[C@H](O)C(C)C; NMeL = CN[C@@H](CC(C)C)C(=O)O; NMeV = CN[C@H](C(=O)O)C(C)C; dNMeS = CN[C@H](CO)C(=O)O; Abu = CC[C@H](N)C(=O)O

Test system: CEM cells HIV-1 protection, formazan growth assay
Test: NCI AIDS Antiviral Assay
Settings: for IC50: measured here: growth of uninfected CEM cells
Summary of the method: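 Five concentrations of each compound were applied to infected and uninfected human CEM cells. Protection from HIV-1 was judged from growth measured with a soluble formazan assay.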

Row | SMILES | EC50 [µM] | IC50 | outcome
1 | CC[C@@H]1NC(=O)[C@H]([C@H](O)C(C)C)N(C)C(=O)[C@H](C(C)C)N(C)C(=O)[C@H](CC(C)C)N(C)C(=O)[C@H](CC(C)C)N(C)C(=O)[C@@H](C)NC(=O)[C@H](CCCCNC(=O)COc2ccc(C[C@H](NC(=O)O[C@H]3CCOC3)[C@H](O)CN(CC(C)C)S(=O)(=O)c3ccc(N)cc3)cc2)NC(=O)[C@H](CC(C)C)N(C)C(=O)[C@H](C(C)C)NC(=O)[C@H](CC(C)C)N(C)C(=O)[C@@H](CO)N(C)C1=O (cyclo([NMeLeu(3R-OH)][Abu][dNMeS][NMeL]V[NMeL]K(X10)[dA][NMeL][NMeL][NMeV])) | 0.0501 | 42.7 µM | 
2 | COC1(OC)c2occc2C(=N)c2ccc(=O)oc21 | > 200 | 129 µM | 
3 | COc1cc2c(c(OC)c1)C1(CC(CC#N)C2)SCCS1 (centres undefined) |  |  | inactive
4 | N#Cc1c(-c2ccc(Cl)cc2)c(C#N)c(=O)n(NS(=O)(=O)c2ccccc2)c1S | > 200 | 17 µM | 
5 | CN(C)c1ccc(/C=C/c2ccc3ccccc3[n+]2C)cc1 | 0.0631 | 0.398 µM | 
6 | Cc1c(Cc2ccccc2)n(C(C)OCCN(O)C(N)=O)c(=O)[nH]c1=O (centres undefined) | > 200 | > 200 µM | 
7 | CC(=O)NC(CO)C(=O)NC(Cc1ccc(O)cc1)C(=O)NCC(N)=O (stereo not drawn) (Ac-Ser-Tyr-Gly-NH2; configuration not given here) | > 200 | > 200 µM | 
8 | C=CCC1C(=O)C(C(=O)OC)N2CCc3c([nH]c4ccccc34)C12 (centres undefined) | > 282 | 138 µM | 
9 | NC(=O)N1c2ccccc2C=Cc2ccccc21 | > 200 | > 200 µM | 
10 | NC(N)=NS(=O)(=O)c1ccc(NC(=O)c2cccc3c(=O)c4ccccc4[nH]c23)cc1 |  |  | inactive
11 | O=C1C[C@@]23CCC4(CC2=CCC[C@H]3O1)OCCO4 |  |  | inactive
12 | COC(=O)C(=O)C(C(=O)C(=O)Nc1cccc(C(C)=O)c1)c1nc2ccc([N+](=O)[O-])cc2[nH]c1=O (centres undefined) | > 64.6 | > 64.6 µM | 
13 | COc1ccc(N2C(=O)/C(=C/c3ccc(N(CCC#N)CCC#N)cc3C)N=C2/C=C\c2ccccc2)cc1 | > 14.1 | > 14.1 µM | 
14 | N#Cc1c(-c2ccccc2)cc(-c2ccccc2)[nH]c1=O | > 36.3 | > 36.3 µM | 
15 | COc1cc(COC(=O)N(C)[C@@H](Cc2ccccc2)C(=O)O)c([N+](=O)[O-])cc1OC | > 603 | 302 µM | 
16 | COC(=O)C1=C(C)N2[C@H](C(=O)O)CS[C@@]2(C)[C@H](C(=O)OC)[C@H]1c1cccc([N+](=O)[O-])c1 | > 200 | 148 µM | 
17 | COC(=O)C(Cc1ccccc1)NP(=O)(O)OCC1OC(n2cc(Br)c(=O)[nH]c2=O)CC1O (centres undefined) | > 200 | > 200 µM | 
18 | COc1cc(C(=O)CC2(O)C(=O)Nc3c(Cl)cc(Cl)cc32)ccc1O (centres undefined) | > 468 | 91.2 µM | 
19 | CCCCCC=C(c1cc(Cl)c(O)c(C(=O)NO)c1)c1cc(Cl)c(O)c(C(=O)NO)c1 | > 200 | 35.5 µM | 
20 | COc1cc(OC)c(/C=N/N=C(\N)NO)c(OC)c1 | > 200 | > 200 µM | 
21 | CNc1ccc(OC)cc1S(=O)(=O)c1ccccc1[N+](=O)[O-] | 148 | 182 µM | 

Row | SMILES | EC50 [µM] | IC50 | outcome
22 | COC(=O)C(C)(C)NC(=O)C(Cc1ccccc1)Nc1ncnc2c1ncn2-c1ccc(OC)cc1 (centres undefined) |  | 56.2 µM | inactive
23 | COC(=O)c1cc(C(=O)OC)c2c3[nH]cnc3ncn2c1=O | > 200 | > 200 µM | 
24 | CC1(C)CC[C@]2(C)CC=C3[C@]4(C)CC[C@H]5C(C)(C)C(=O)CC[C@]5(C)[C@H]4CC[C@@]3(C)[C@H]2C1 | > 50.1 | > 50.1 µM | 
25 | CNC(=O)CCNC(=O)CCC(=O)N(C)C | > 200 | > 200 µM | 
26 | CC(C)C(C=O)C(O)(C(F)(F)F)C(F)(F)F (centres undefined) | > 200 | > 200 µM | 
27 | Cc1nc2c(=O)n(C)ncc2[nH]1 | > 200 | > 200 µM | 
28 | CCC(=O)N(c1ccccc1)C(C)CN1CCC(O)(c2cccc(C(F)(F)F)c2)CC1 (centres undefined) | > 200 | 74.1 µM | 
29 | O=C(CC1Sc2ccccc2NC1=O)Nc1cccc(Cl)c1 (centres undefined) | > 56.2 | > 56.2 µM | 
30 | COc1ccc(CCCNC(=O)c2cc(OC)c(OC)cc2CCO)cc1OC | > 200 | > 200 µM | 
31 | C[C@]12CCC3c4ccc(OS(=O)(=O)O)cc4CC[C@H]3C1CC[C@@H]2O (some centres undefined) |  |  | inactive
32 | N#Cc1c(-c2ccco2)cc(-c2ccccc2)[nH]c1=O | > 20 | > 20 µM | 
33 | COc1cc2nncc(SC)c2cc1OC | > 91.2 | 72.4 µM | 
34 | CSc1nc(=S)[nH]c2n[nH]c(C)c12 | > 200 | > 200 µM | 
35 | COc1cc2c(cc1O)C1COc3cc4c(cc3C1O2)CCC(C)(C)O4 (centres undefined) | > 200 | 11.5 µM | 
36 | Cc1ccc(-c2[nH]c(=O)n(C3OC(CO)C(O)C(O)C3O)c(=O)c2C#N)cc1 (centres undefined) | > 200 | > 200 µM | 
37 | NC(=O)C(=O)N/N=C(\CC1(O)C(=O)Nc2ccccc21)c1ccc2ccccc2c1 (centres undefined) | > 33.9 | > 33.9 µM | 
38 | CCOC(=O)c1[nH]cc(C)c1-c1c[nH]c2ccccc12 | > 200 | 24.5 µM | 
39 | CCOC(=O)/C=C/SCCCC(=O)O |  | > 1150 µM and 1150 µM | 
40 | COc1ccc2nc3c([N+](=O)[O-])ccc(NCCCN(C)C)c3c(NCCCN(C)C)c2c1 | > 200 | 0.229 µM | 
41 | COCC(OC)C(CC=C(C#N)C#N)OC (centres undefined) | > 44.7 | > 44.7 µM | 
42 | O=C1CSC(=S)N1Cc1ccncc1 | > 200 | 4.27 µM | 

Row | SMILES | EC50 [µM] | IC50 | outcome
43 | CC1(C)c2ccccc2C(=O)C1(Br)Cc1ccccc1 (centres undefined) | > 200 | 9.55 µM | 
44 | COc1ccc(CCn2cncn2)cc1 | > 1050 | > 1050 µM | 
45 | CCN(CC)CCCNc1ccc([N+](=O)[O-])c2nc3ccc(OC)cc3c(NCCCN(CC)CC)c12 | > 50.1 | 0.234 µM | 
46 | Cc1ccccc1-c1nc2c(N)nc(N)nc2nc1N |  |  | inactive
47 | CC1=C(C)C1[N+](=O)[O-] | > 200 | > 200 µM | 
48 | Cc1c2c(oc(=O)c1NC(=O)c1ccccc1)CCCCCC2 | > 200 | > 200 µM | 
49 | COc1ccc2nc3c4ccccc4scc-3c2c1 | > 200 | 0.295 µM | 
50 | CC(C)C1CCC(=O)CC1CCCCC1CC(=O)CC1O[Si](C)(C)C(C)(C)C (centres undefined) | > 200 | 7.24 µM | 
51 | COc1ccc2c(c1)CCc1c(C(C)=O)c3ccccc3n1C2 | > 58.9 | > 58.9 µM | 
52 | CC1(C)OCN(c2ccc(S(N)(=O)=O)cc2)Cn2c1nc1ccccc12 | > 200 | 117 µM | 
53 | O=c1[nH]cnc2c1ncn2Cc1ccccc1CCO | > 93.3 | > 93.3 µM | 
54 | Cc1ccc(Nc2cn(COCc3ccccc3)c(=O)[nH]c2=O)cc1 | > 200 | > 200 µM | 
55 | COc1ccc(CNc2cnc3cc(N)ccc3n2)cc1 | > 67.6 | > 67.6 µM | 
56 | CC(=O)N1CN2C(=O)CCC2c2ccccc21 (centres undefined) |  |  | inactive
57 | CCCCN(CCCC)CCCCCCCN1CCCc2cc(OC)ccc21 | > 200 | 17.8 µM | 
58 | N#Cc1nc(N)c(C#N)[nH]1 |  |  | inactive
59 | O=S(c1ccccc1)[C@H]1CC2C3CC4C2C4C31 (some centres undefined) | > 107 | > 107 µM | 
60 | Cc1cc(C)nc(NS(=O)(=O)c2ccc(NC(=O)c3ccc(Cl)c4c(Nc5ccc(S(=O)(=O)Nc6nc(C)cc(C)n6)cc5)c5ccccc5nc34)cc2)n1 | > 45.7 | 24.5 µM | 
61 | CC(CCC(=O)O)[C@H]1CCC2[C@@H]3CC(O)[C@@H]4CC(O)CC[C@]4(C)C3CC[C@@]21C (some centres undefined) | > 200 | 72.4 µM | 
62 | [N-]=[N+]=N[C@H]1C[C@@H](CO)O[C@H]1n1cnc2c(N)ncnc21 |  |  | inactive
63 | CCC(=O)N=c1sc(SCc2ccccc2)nn1C(=O)SC (tested in a mixture with another compound) | > 200 | 10.7 µM | 

Row | SMILES | EC50 [µM] | IC50 | outcome
64 | CC1=Nc2ccccc2S/C1=C1/C=NC(=NC#N)N=C1C(=O)Nc1cccc(Cl)c1 | > 83.2 | > 83.2 µM | 
65 | C[C@]12CC[C@H](OS(=O)(=O)O)CC1CCC1C2CC[C@@]2(C)C1CC[C@@H]2CO (some centres undefined) | > 60.3 | > 60.3 µM | 
66 | O=C(O)[C@@H]1CCC(=O)N1C(c1ccc2c(c1)OCO2)c1ccc2c(c1)OCO2 | > 200 | > 200 µM | 
67 | CCCCCCCOc1ccc(/C=C\c2cc[n+](CCCCCCCC[n+]3ccc(/C=C\c4ccc(OCCCCCCC)cc4)cc3)cc2)cc1 | > 6.46 | > 6.46 µM | 
68 | COc1cccc2c1C(=O)c1c(O)c3c(c(O)c1C2=O)C[C@@](O)(C(C)O)C[C@@H]3OC1CC(N)C(O)C(C)O1 (some centres undefined) |  |  | inactive
69 | Clc1cccc(Cl)c1C1SCc2nc3ccccc3n21 (centres undefined) | 0.224 | 21.9 µM | 
70 | Nc1cc2cc([N+](=O)[O-])ccc2oc1=O | > 178 | > 178 µM | 
71 | CSC1NC(c2ccc(Cl)cc2)=C(C#N)C(=O)N1C1OCC(OC(C)=O)C(OC(C)=O)C1OC(C)=O (centres undefined) | > 200 | 30.9 µM | 
72 | COC(=O)CCC(C)C1CCC2C3=CC(=O)C4CC(OC(C)=O)CCC4(C)C3CC(OC(C)=O)C21C (centres undefined) | > 51.3 | 37.2 µM | 
73 | O=c1c2ccccc2oc2cc([N+](=O)[O-])cc([N+](=O)[O-])c12 | > 5.01 | 4.17 µM | 
74 | O=P1(Oc2ccccc2)OC[C@H]2S[C@H](c3ccccc3)C[C@H]2O1 (some centres undefined) | > 200 | > 200 µM | 
75 | O=C(O)c1c(O)c2cc([N+](=O)[O-])ccc2oc1=O | > 324 | > 324 µM | 
76 | COc1ccc(/C=N/NS(=O)(=O)c2ccc(/C=C3\NC(=O)NC3=O)cc2)cc1 | > 200 | > 200 µM | 
77 | O=[N+]([O-])c1cc(S(=O)(=O)c2ccc(N(CCO)CCO)c([N+](=O)[O-])c2)ccc1N(CCO)CCO | > 200 | 35.5 µM | 
78 | S=c1ssc2ccccc12 | > 97.7 | 91.2 µM | 
79 | C[C@H](NC(=O)CNC(=O)CCCCCC(=O)NCC(=O)N[C@@H](C)C(=O)OCc1ccccc1)C(=O)OCc1ccccc1 | > 200 | > 100 µM | 
80 | COc1ccc([N+](=O)[O-])c2c(NCCC[N+](C)(C)[O-])c3ccccc3nc12 | > 200 | 3.09 µM | 
81 | N#Cc1cccc(C=C2C(=O)c3ccccc3C2=O)c1 | > 36.3 | > 36.3 µM | 
82 | COC(=O)C1CC23CC1(OC(C)=O)CCC2c1ccc(OC)cc1C3=O (centres undefined) | > 61.7 | > 61.7 µM | 
